Each structure is given as a SMILES string.

This data set in a line: loss of linezolid in IV solution during and following terminal moist heat sterilization in the container. To be noted: container-solution contact surface made of at least 50% polyolefin. It is filed as physicochemical. From the text:
It is well known to those skilled in the art that pharmaceutical agents administered IV must be sterile. While there are a number of methods to sterilize an IV solution, it is preferred to terminally moist heat or steam sterilize IV solutions of antibacterial oxazolidinones including those of linezolid. When the term terminally “moist heat sterilize” is used, it refers to and includes steam sterilization.
When terminally moist heat sterilizing an IV solution, the solution is placed in the container in which (1) it will be stored and then transferred to the container from which it will ultimately be administered, or (2) stored and then ultimately administered from the same container to deliver the IV solution to the patient. Therefore, it is imperative that the pharmaceutically active ingredient (oxazolidinone, linezolid) not react with the container in which it is to be terminally moist heat sterilized and stored/stored-administered.
What is essential is that the container-solution contact surface material be primarily a polyolefin; the remainder of the container can be made from polyolefin or other materials. It is preferred that the container-solution contact surface is made of from about 50 to about 100% polyolefin. It is more preferred that the container-solution contact surface is made of from about 70 to about 90% polyolefin. […]

Turning to `CC(=O)NC[C@H]1CN(c2ccc(N3CCOCC3)c(F)c2)C(=O)O1` [linezolid, (S)-N-[[3-[3-fluoro-4-(4-morpholinyl)phenyl]-2-oxo-5-oxazolidinyl]methyl]acetamide], the “loss of linezolid during and following terminal moist heat sterilization” value is reported as “significantly much less loss”.

Values taken from US20010046992A1, “Treatment of urinary tract infections with antibacterial oxazolidinones” (priority 2000, published 2001).
